According to patent US11760764B2, “Methods and compositions for targeting PD-L1” (Aligos Therapeutics, Inc., priority 2020, dated 2023):
Like-named read-outs stand apart in the source and are kept apart here.

Columns and labels:
[1] = target: T1, PD-1/PD-L1 interaction (Jurkat cells overexpressing PD-1 co-cultured with PD-L1 expressing CHO cells) (Homo sapiens, UniProt Q9NZQ7); assay: PD-1/PD-L1 NFAT Reporter Assay; assay type: cell-based; conditions: Table C-1; Jurkat/CHO co-culture, 6 hrs at 37° C., luciferase activity
T1 construct: expressed in transfected cells; Jurkat cells (PD-1 and NF-AT luciferase construct)
Description: Blocking the PD-1/PD-L1 interaction will release the inhibitory signal and results in TCR signaling and NFAT-mediated luciferase activity.
CHO cells expressing surface-bound anti-CD3 antibodies and PD-L1 were first seeded overnight and treated with the compounds. Jurkat cells overexpressing PD-1 and a luciferase construct under NF-AT promoter were then immediately seeded on the monolayer of CHO cells. The co-culture was then incubated for 6 hrs at 37° C. Luciferase activity was assessed by adding the ONE-Glo reagent and measuring luminescence with a plate reader. EC50s values were determined from the fit of the dose-response curves

[2] = target: PD-1/PD-L1 interaction (PDL1-6×His protein, PD1-Fc-Avi-Biotin protein) (Homo sapiens, UniProt Q9NZQ7); assay: PDL1/PD1 Binding Assay; conditions: 0.3 nM PDL1, 2.5 nM PD1
Description: Compounds to be tested were serially diluted in DMSO, and further diluted in assay buffer (25 mM Hepes pH 7.4, 150 mM NaCl, 0.005% Tween 20, BSA 0.01%). Diluted compounds were added to the wells with final concentration of DMSO at 1%. PDL1-6×His protein was added to the wells, mixed well with compound. The plates were incubated for 30 min at room temperature. PD1-Fc-Avi-Biotin protein was added to the wells. […] After a binding time of 30 min at room temperature, Anti-6×His Acceptor beads (final concentration 20 ug/ml) were added to the wells, and the incubation continued for 1 h. Streptavidin Donor beads (final concentration 20 ug/mL) were added at reduced light. The plates were sealed with foil and incubated in the dark for additional 1 h or overnight before reading on an Envision reader. The IC50s were determined by fitting the curves using a four-parameter equation in Graphpad Prism 8.

[3] = Table C-1, read-out: Biological Data Biochem PD-1/PD-L1
[4] = Table C, read-out: PD-1/PD-L1 PPI IC50

T1 sequence (Q9NZQ7 19-290): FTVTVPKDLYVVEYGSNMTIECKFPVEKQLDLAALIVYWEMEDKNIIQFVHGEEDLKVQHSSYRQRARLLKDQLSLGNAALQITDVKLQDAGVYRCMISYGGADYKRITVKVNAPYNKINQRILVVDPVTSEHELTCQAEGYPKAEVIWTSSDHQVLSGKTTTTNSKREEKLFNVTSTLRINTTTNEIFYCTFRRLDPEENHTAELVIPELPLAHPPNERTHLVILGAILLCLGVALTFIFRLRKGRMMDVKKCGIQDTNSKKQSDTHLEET
PD-1/PD-L1 interaction (PDL1-6×His protein, PD1-Fc-Avi-Biotin protein), sequence (Q9NZQ7 19-238 limits assumed): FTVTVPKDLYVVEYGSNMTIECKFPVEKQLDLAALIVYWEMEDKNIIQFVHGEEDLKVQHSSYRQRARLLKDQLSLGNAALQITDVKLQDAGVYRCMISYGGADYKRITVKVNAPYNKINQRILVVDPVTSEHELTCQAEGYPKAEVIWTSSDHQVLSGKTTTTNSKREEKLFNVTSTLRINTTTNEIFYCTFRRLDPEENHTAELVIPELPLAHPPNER

SMILES	EC50 [1]	IC50 [2, 3]	PD-1/PD-L1 NFAT Reporter Assay [1]	IC50 [2, 4]
CCOC(=O)C1CN([C@H]2CCc3cc(-c4cccc(-c5cccc(-c6cc7c(c(OC)c6)[C@@H](N6CC(C(=O)OCC)C6)CC7)c5Cl)c4Cl)cc(OC)c32)C1 (single isomer, unassigned) [Compound L-4]	100 to 1000 nM	≤ 10 nM		
CCOC(=O)C1CN([C@@H]2CCc3cc(-c4cccc(-c5cccc(-c6cc7c(c(OC)c6)[C@H](N6CC(C(=O)OCC)C6)CC7)c5Cl)c4Cl)cc(OC)c32)C1 (single isomer, unassigned) [Compound L-5]		100 to 1000 nM	n.r	
CCOC(=O)C1CN([C@H]2CCc3cc(-c4cccc(-c5cccc(-c6ccc7c(c6)CC[C@@H]7N6CC(C(=O)OCC)C6)c5Cl)c4Cl)ccc32)C1 (single isomer, unassigned) [Compound L-6]	1000 to 10000 nM	≤ 10 nM		
CCOC(=O)C1CN([C@@H]2CCc3cc(-c4cccc(-c5cccc(-c6ccc7c(c6)CC[C@H]7N6CC(C(=O)OCC)C6)c5Cl)c4Cl)ccc32)C1 (single isomer, unassigned) [Compound L-7]	100 to 1000 nM	≤ 10 nM		
COc1nc(-c2cccc(-c3cccc(-c4cc5c(c(OC)n4)[C@@H](N4CC6(CCC(=O)N6)C4)CC5)c3Cl)c2F)cc2c1[C@@H](N1CC3(CCC(=O)N3)C1)CC2 (single isomer, unassigned) [Compound L-9]	≤ 10 nM	≤ 10 nM		≤ 10 nM
COc1nc(-c2cccc(-c3cccc(-c4cc5c(c(OC)n4)[C@@H](N4CC6(CN(C(C)=O)C6)C4)CC5)c3Cl)c2F)cc2c1[C@@H](N1CC3(CN(C(C)=O)C3)C1)CC2 (single isomer, unassigned) [Compound L-10]	> 10000 nM	≤ 10 nM		≤ 10 nM
COc1nc(-c2cccc(-c3cccc(-c4cc5c(c(OC)n4)[C@H](N4CC6(CN(C(C)=O)C6)C4)CC5)c3Cl)c2F)cc2c1[C@H](N1CC3(CN(C(C)=O)C3)C1)CC2 (single isomer, unassigned) [Compound L-11]	≤ 10 nM	≤ 10 nM		≤ 10 nM
CCOC(=O)C1CN([C@H]2CCc3cc(-c4cccc(-c5cccc(-c6ccc7c(c6)CC[C@@H]7N6CC(C(=O)O)C6)c5Cl)c4Cl)ccc32)C1 (single isomer, unassigned) [Compound M-2A]	100 to 1000 nM	≤ 10 nM		
O=C(O)C1CN([C@H]2CCc3cc(-c4cccc(-c5cccc(-c6ccc7c(c6)CC[C@@H]7N6CC(C(=O)O)C6)c5Cl)c4Cl)ccc32)C1 (single isomer, unassigned) [Compound M-2B]	100 to 1000 nM	≤ 10 nM		
CCOC(=O)C1CN([C@@H]2CCc3cc(-c4cccc(-c5cccc(-c6ccc7c(c6)CC[C@H]7N6CC(C(=O)O)C6)c5Cl)c4Cl)ccc32)C1 (single isomer, unassigned) [Compound M-3A]	100 to 1000 nM	≤ 10 nM		
O=C(O)C1CN([C@@H]2CCc3cc(-c4cccc(-c5cccc(-c6ccc7c(c6)CC[C@H]7N6CC(C(=O)O)C6)c5Cl)c4Cl)ccc32)C1 (single isomer, unassigned) [Compound M-3B]	100 to 1000 nM	≤ 10 nM		
COc1cc(-c2cccc(-c3cccc(-c4cc5c(c(OC)c4)[C@H](N4CC(C(=O)O)C4)CC5)c3Cl)c2Cl)cc2c1[C@H](N1CC(C(=O)O)C1)CC2 (single isomer, unassigned) [Compound M-4B]		10 to 100 nM	n.r	
COc1nc(-c2cccc(-c3cccc(-c4cc5c(c(OC)n4)[C@@H](NC[C@@H]4CCC(=O)N4)CC5)c3Cl)c2F)cc2c1[C@@H](NC[C@@H]1CCC(=O)N1)CC2 [Compound L-8]	≤ 10 nM	≤ 10 nM		≤ 10 nM
COc1cc(-c2cccc(-c3cccc(-c4cc5c(c(OC)c4)C(N4CC(C(=O)O)C4)CC5)c3Cl)c2Cl)cc2c1C(N1CC(C(=O)O)C1)CC2 (centres unmarked) [Compound M-1B]	100 to 1000 nM	≤ 10 nM		
COCCN1CCc2c(cc(-c3cccc(-c4cccc(-c5cc6c(c(OC)n5)CCN(CCOC)C6)c4Cl)c3Cl)nc2OC)C1 [Compound O-1]	1000 to 10000 nM	≤ 10 nM		
COCCN1CCc2c(cc(-c3cccc(-c4cccc(-c5cc6c(c(OC)c5)[C@@H](N5CC(C(=O)O)C5)CC6)c4Cl)c3Cl)nc2OC)C1 [Compound O-2B]	10 to 100 nM			
